# Experimental data as given in patent US7365071B2, “Heterocyclic compounds, preparation process and intermediates, and use as medicaments, in particular as β-lactamase inhibitors and antibacterials” (priority 2002, dated 2008).
# Where a name gives a salt, the structure may show the parent alone. Read-outs that look alike come from different tables or passages of the source.
# Tests used:
# β-lactamase P99 = biological target: T1, β-lactamase P99 (Enterobacter cloacae, UniProt P05364); test: Inhibitory activity for β-lactamases (nitrocefin hydrolysis); assay type: biochemical
# T1 construct: The β-lactamases are isolated from bacterial strains resistant to penicillins and to cephalosporins; endogenous in cells; host or cells: Enterobacter cloacae 293HT6, soluble fraction of French-press lysate
# T1 sequence (P05364 21-381): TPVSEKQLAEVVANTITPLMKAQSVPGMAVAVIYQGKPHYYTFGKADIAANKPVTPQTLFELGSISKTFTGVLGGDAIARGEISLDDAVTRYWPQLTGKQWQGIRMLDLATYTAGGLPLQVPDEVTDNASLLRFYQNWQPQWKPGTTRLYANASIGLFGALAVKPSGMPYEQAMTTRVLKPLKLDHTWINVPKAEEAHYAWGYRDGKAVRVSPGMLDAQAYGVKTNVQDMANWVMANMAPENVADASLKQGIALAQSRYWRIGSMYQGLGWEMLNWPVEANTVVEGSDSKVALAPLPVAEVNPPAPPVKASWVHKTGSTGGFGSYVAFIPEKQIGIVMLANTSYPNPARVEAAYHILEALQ
# Method: (§1) II/Inhibitory Activity for β-Lactamases
# (§2) A. Preparation of the β-Lactamases Tem-1 and P99
# (§3) The β-lactamases are isolated from bacterial strains resistant to penicillins and to cephalosporins (Tem1 and P99 are produced respectively by E. coli 250HT21 and E. Cloacae 293HT6).
# (§4) The bacteria are cultured in 37 g/l brain-heart broth (DIFCO) at 37° C. They are harvested in the exponential phase, cooled and centrifuged. The bacterial pellets are taken up in 50 mM sodium phosphate buffer, pH 7.0, and are again centrifuged. The bacteria are taken up in two volumes of the same buffer and lyzed using a French press maintained at 4° C. After centrifuging for 1 h at 100 000 g at 4° C., the supernatants comprising the soluble fraction of the bacterial extracts are recovered and frozen at −80° C.
# (§5) B. Determination of the β-Lactamase Activity
# (§6) The method uses nitrocefin (Oxoid), a chromogenic cephalosporin, the product of hydrolysis by β-lactamases of which is red and absorbed at 485 nm, as substrate. The β-lactamase activity is determined kinetically by the measurement, on a plate spectrophotometer (Spectra Max Plus from Molecular Devices), of the variation in absorbance at 485 nm resulting from the hydrolysis of the substrate. The experiments are carried out at 37° C. The amount of enzyme was standardized and the measurements are carried out at the initial rate.
# (§7) C. Determination of the Inhibitory Activity for β-Lactamases
# (§8) Two measurements are carried out, without preincubation and with preincubation of the enzyme and of the inhibitor (5 min), in order to test the irreversibility of the reaction. The products are tested at 6 or 8 concentrations in duplicate. The reaction mixture comprises 100 μM nitrocefin and 50 mM sodium phosphate buffer, pH 7.0.
# (§9) D. Calculations of the IC50 Values
# (§10) The rates of hydrolysis are measured with and without inhibitor. The concentration of inhibitor which inhibits by 50% the reaction for the hydrolysis of nitrocefin by the enzyme is determined (IC50). The processing of the data is carried out using GraFit software (Erathycus Software).
# β-lactamase Tem-1 = biological target: T2, β-lactamase Tem-1 (Escherichia coli, UniProt P62593); test: as above; assay type: biochemical, E. coli 250HT21
# T2 construct: The β-lactamases are isolated from bacterial strains resistant to penicillins and to cephalosporins; endogenous in cells; host or cells: E. coli 250HT21, soluble fraction of French-press lysate
# T2 sequence (P62593 24-286 limits assumed): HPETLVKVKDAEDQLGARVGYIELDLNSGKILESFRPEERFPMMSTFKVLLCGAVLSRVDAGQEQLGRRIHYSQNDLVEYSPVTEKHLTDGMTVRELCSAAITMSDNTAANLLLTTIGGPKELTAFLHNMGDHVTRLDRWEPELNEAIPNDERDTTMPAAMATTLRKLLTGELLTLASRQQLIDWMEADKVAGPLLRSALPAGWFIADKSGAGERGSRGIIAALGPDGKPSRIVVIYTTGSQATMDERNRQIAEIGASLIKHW
# Method: as §1, §2, §3, §4, §5, §6, §7, §8, §9, §10
# [1] = after 5 min of preincubation with the enzyme, 100 μM nitrocefin, 50 mM sodium phosphate buffer pH 7.0, 37° C., read-out: IC50 nM/P99
# [2] = after 5 min of preincubation with the enzyme, 100 μM nitrocefin, 50 mM sodium phosphate buffer pH 7.0, 37° C., read-out: IC50 nM/TEM1
Compound,IC50 (β-lactamase P99; [1]) [nM],IC50 (β-lactamase Tem-1; [2]) [nM],IC50 (β-lactamase P99) [nM],IC50 (β-lactamase Tem-1) [nM]
"CN1c2ccccc2C2CN1C(=O)N2OS(=O)(=O)O (stereo not shown) [Example 28, Sodium salt of 4,5-dihydro-1-methyl-4-(sulfooxy)-2,5-methano-2H-1,2,4-benzotriazepin-3(1H)-one]",37000,12000,–,–
"CS(=O)(=O)N1c2ccccc2C2CN1C(=O)N2OCC(=O)O (stereo not shown) [Example 5, N-(1-Methylethyl)-2-propanaminium salt of [[1,5-dihydro-1-(methylsulfonyl)-3-oxo-2,5-methano-2H-1,2,4-benzotriazepin-4(3H)-yl]oxy]acetic acid]",–,–,460000,570000
"C=CCON1C(=O)N2CC1c1ccccc1N2Cc1cccnc1 (stereo not shown) [Example 14, 4,5-Dihydro-4-(2-propenyloxy)-1-(3-pyridinylmethyl)-2,5-methano-2H-1,2,4-benzotriazepin-3(1H)-one]",17000,26000,–,–
"C=CCON1C(=O)N2CC1c1ccccc1N2C(=O)NS(=O)(=O)c1ccccc1 (stereo not shown) [Example 15, 4,5-Dihydro-3-oxo-N-(phenylsulfonyl)-4-(2-propenyloxy)-2,5-methano-2H-1,2,4-benzotriazepin-1(3H)-carboxamide]",110000,450000,–,–
"O=C(O)CON1C(=O)N2CC1c1ccccc1N2C(=O)NC(=O)c1ccccc1 (stereo not shown) [Example 7, N-(1-Methylethyl)-2-propanaminium salt of [[1-[(benzoylamino)carbonyl]-1,5-dihydro-3-oxo-2,5-methano-2H-1,2,4-benzotriazepin-4(3H)-yl]oxy]acetic acid]",–,–,63000,110000
"O=C(O)CON1C(=O)N2CC1c1ccccc1N2 (stereo not shown) [Example 11, N-(1-Methylethyl)-2-propanaminium salt of [(1,5-dihydro-3-oxo-2,5-methano-2H-1,2,4-benzotriazepin-4(3H)-yl)oxy]acetate acid]",–,–,15000,14000
"O=C(O)CON1C(=O)N2CC1c1ccccc1N2C(=O)NS(=O)(=O)c1ccccc1 (stereo not shown) [Example 9, Bis[N-(1-methylethyl)-2-propanaminium] salt of [[1,5-dihydro-3-oxo-1-[[(phenylsulfonyl)amino]carbonyl]-2,5-methano-2H-1,2,4-benzotriazepin-4(3H)-yl]oxy]acetic acid]",–,–,180000,160000
"CCOC(=O)CN1c2ccccc2C2CN1C(=O)N2OS(=O)(=O)O (stereo not shown) [Example 27, Sodium Salt of Ethyl 4,5-dihydro-3-oxo-4-(sulfoxy)-2,5-methano-2-H-1,2,4-benzotriazepine-1(3H)-acetate]",530,7500,–,–
